Assay results published in ChEMBL document CHEMBL1150628, “Cytotoxic beta-carbolines and cyclic peroxides from the Palauan sponge Plakortis nigra” (J Nat Prod, 2002).

Test system: HCT-116
Assay: Cytotoxicity against human HCT116 cells
Assay type: functional, cell-based

| SMILES | IC50 [µM] |
| --- | --- |
| CN(CCc1nccc2c1[nH]c1cc(Br)ccc12)CCc1nccc2c1[nH]c1cc(Br)ccc12 [PLAKORTAMINE C] | 2.15 |
| CN(C)CCc1nccc2c1[nH]c1cc(Br)ccc12 [PLAKORTAMINE A] | 3.2 |
| C[C@H]1C[C@@](C)(CCCCCCCCCCCCc2ccccc2)OC1=O (relative stereo) | 14.5 |
| CN1CCC(c2nccc3c2[nH]c2cc(Br)ccc23)O1 (stereo not given) [PLAKORTAMINE D] | 15 |
| C=Cc1nccc2c1[nH]c1cc(Br)ccc12 [PLAKORTAMINE B] | 0.62 |
